Assay results: patent US7517874B2 (priority 2007, dated 2009)
Like-named read-outs stand apart in the source and are kept apart here.

Columns and labels:
rat CB2 receptor (rCB2) = molecular target: T1, rat CB2 receptor (rCB2) (Rattus norvegicus, UniProt Q9QZN9); test: cell-based; assay type: cell-based; details: for +/− RCB2: agonist or inverse agonist at rCB2
T1 sequence (Q9QZN9 1-360): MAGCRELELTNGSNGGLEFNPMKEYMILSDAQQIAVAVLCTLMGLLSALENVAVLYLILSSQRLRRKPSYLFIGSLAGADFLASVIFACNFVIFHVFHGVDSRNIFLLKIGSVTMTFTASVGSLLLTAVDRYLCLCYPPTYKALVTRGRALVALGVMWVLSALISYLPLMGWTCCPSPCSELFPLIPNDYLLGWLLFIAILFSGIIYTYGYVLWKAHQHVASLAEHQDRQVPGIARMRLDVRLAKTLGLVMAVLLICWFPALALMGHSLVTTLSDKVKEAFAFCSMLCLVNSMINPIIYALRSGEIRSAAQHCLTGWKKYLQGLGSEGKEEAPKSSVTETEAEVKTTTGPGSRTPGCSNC
How it was run: (§1)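 Readout: LANCE TR-FRET cAMP, back-calculated from a concurrent standard curve and scaled between forskolin-only and forskolin + 1 μM CP55,940 wells. EC50 and intrinsic activity came from four-parameter fits.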

[1] = molecular target: human CB1 receptor (hCB1) (Homo sapiens, UniProt P21554); test: cell-based; assay type: cell-based
How it was run: as §1

[2] = groups >100 nM-10 μM and >10 μM, cAMP, CHO-K1 rCB2, read-out: EC50 RCB2
[3] = groups >100 nM-10 μM and >10 μM, cAMP, CHO-K1 hCB1, read-out: EC50 HCB1

Sequence of human CB1 receptor (hCB1) (P21554 whole entry): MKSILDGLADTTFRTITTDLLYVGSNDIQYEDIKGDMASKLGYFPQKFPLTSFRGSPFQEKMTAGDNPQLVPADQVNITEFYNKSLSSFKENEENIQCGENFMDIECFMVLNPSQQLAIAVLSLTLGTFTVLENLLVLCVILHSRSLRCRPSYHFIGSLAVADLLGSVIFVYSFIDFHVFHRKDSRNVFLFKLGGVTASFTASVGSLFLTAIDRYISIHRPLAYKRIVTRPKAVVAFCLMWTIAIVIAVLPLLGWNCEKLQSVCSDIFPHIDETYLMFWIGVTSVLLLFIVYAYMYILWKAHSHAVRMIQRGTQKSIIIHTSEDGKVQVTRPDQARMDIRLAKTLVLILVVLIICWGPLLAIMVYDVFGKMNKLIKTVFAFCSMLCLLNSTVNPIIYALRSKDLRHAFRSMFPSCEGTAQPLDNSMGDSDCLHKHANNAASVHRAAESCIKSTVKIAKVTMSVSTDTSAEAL

Structure (SMILES)	EC50 (rat CB2 receptor (rCB2); [2])	EC50 [1, 3]	+/− RCB2 (rat CB2 receptor (rCB2))	EC50 [1]	EC50 (rat CB2 receptor (rCB2))
O=C(Nc1ccccc1)c1nc(-c2ccccc2)n2c1CNCC2 [Compound 41, N,3-diphenyl-5,6,7,8-tetrahydroimidazo[1,5-a]pyrazine-1-carboxamide]	> 10000 nM	> 10000 nM			
CC(C)CCNC(=O)c1nc(-c2ccc(Cl)cc2)n2c1CNCC2 [Compound 42, 3-(4-chlorophenyl)-N-isopentyl-5,6,7,8-tetrahydroimidazo[1,5-a]pyrazine-1-carboxamide]		> 10000 nM	−		
CC(C)(C)[C@@H](CO)NC(=O)c1nc(-c2ccc(Cl)cc2)n2c1CNCC2 [Compound 43, (S)-3-(4-chlorophenyl)-N-(1-hydroxy-3,3-dimethylbutan-2-yl)-5,6,7,8-tetrahydroimidazo[1,5-a]pyrazine-1-carboxamide]			−	> 10000 nM	
O=C(NN1CCCCC1)c1nc(-c2ccccc2)n2c1CNCC2 [Compound 44, 3-phenyl-N-(piperidin-1-yl)-5,6,7,8-tetrahydroimidazo[1,5-a]pyrazine-1-carboxamide]			−	> 10000 nM	
C[C@@H](NC(=O)c1nc(-c2ccccc2)n2c1CNCC2)C1CCCCC1 [Compound 45, (R)-N-(1-cyclohexylethyl)-3-phenyl-5,6,7,8-tetrahydroimidazo[1,5-a]pyrazine-1-carboxamide]		> 10000 nM	−		
O=C(NCC1CCOCC1)c1nc(-c2ccccc2)n2c1CNCC2 [Compound 46, 3-phenyl-N-((tetrahydro-2H-pyran-4-yl)methyl)-5,6,7,8-tetrahydroimidazo[1,5-a]pyrazine-1-carboxamide]		> 10000 nM	−		
O=C(NC1CCCCC1)c1nc(-c2ccccc2)n2c1CNCC2 [Compound 47, N-cyclohexyl-3-phenyl-5,6,7,8-tetrahydroimidazo[1,5-a]pyrazine-1-carboxamide]	> 10000 nM	> 10000 nM			
CNC(=O)[C@@H](NC(=O)c1nc(-c2ccccc2)n2c1CN(C)CC2)C(C)(C)C [Compound 48, (S)-N-(3,3-dimethyl-1-(methylamino)-1-oxobutan-2-yl)-7-methyl-3-phenyl-5,6,7,8-tetrahydroimidazo[1,5-a]pyrazine-1-carboxamide]			+	> 10000 nM	
CNC(=O)[C@@H](NC(=O)c1nc(-c2ccc(Cl)cc2)n2c1CN(C)CC2)C(C)(C)C [Compound 49, (S)-3-(4-chlorophenyl)-N-(3,3-dimethyl-1-(methylamino)-1-oxobutan-2-yl)-7-methyl-5,6,7,8-tetrahydroimidazo[1,5-a]pyrazine-1-carboxamide]			−	> 10000 nM	
C[C@@H](NC(=O)c1nc(-c2ccccc2)n2c1CN(C)CC2)C(C)(C)C [Compound 50, (R)-N-(3,3-dimethylbutan-2-yl)-7-methyl-3-phenyl-5,6,7,8-tetrahydroimidazo[1,5-a]pyrazine-1-carboxamide]	> 10000 nM	> 10000 nM			
C[C@H](NC(=O)c1nc(-c2ccccc2)n2c1CN(C)CC2)C(C)(C)C [Compound 51, (S)-N-(3,3-dimethylbutan-2-yl)-7-methyl-3-phenyl-5,6,7,8-tetrahydroimidazo[1,5-a]pyrazine-1-carboxamide]	> 10000 nM	> 10000 nM			
CC(C)CN1CCn2c(-c3ccccc3)nc(C(=O)N[C@H](C)C(C)(C)C)c2C1 [Compound 52, (R)-N-(3,3-dimethylbutan-2-yl)-7-isobutyl-3-phenyl-5,6,7,8-tetrahydroimidazo[1,5-a]pyrazine-1-carboxamide]			−	> 10000 nM	
CC(C)CN1CCn2c(-c3ccccc3)nc(C(=O)N[C@@H](C)C(C)(C)C)c2C1 [Compound 53, (S)-N-(3,3-dimethylbutan-2-yl)-7-isobutyl-3-phenyl-5,6,7,8-tetrahydroimidazo[1,5-a]pyrazine-1-carboxamide]			−	> 10000 nM	
CNC(=O)[C@@H](NC(=O)c1nc(-c2ccccc2)n2c1CN(CCC(C)(C)C)CC2)C(C)(C)C [Compound 54, (S)-N-(3,3-dimethyl-1-(methylamino)-1-oxobutan-2-yl)-7-(3,3-dimethylbutan)-3-phenyl-5,6,7,8-tetrahydroimidazo[1,5-a]pyrazine-1-carboxamide]			−	> 10000 nM	
CNC(=O)[C@@H](NC(=O)c1nc(-c2ccccc2)n2c1CN(CC(C)(C)C)CC2)C(C)(C)C [Compound 55, (S)-N-(3,3-dimethyl-1-(methylamino)-1-oxobutan-2-yl)-7-neopentyl-3-phenyl-5,6,7,8-tetrahydroimidazo[1,5-a]pyrazine-1-carboxamide]			−	> 10000 nM	
CNC(=O)[C@@H](NC(=O)c1nc(-c2ccccc2)n2c1CN(CC1CC1)CC2)C(C)(C)C [Compound 56, (S)-7-(cyclopropylmethyl)-N-(3,3-dimethyl-1-(methylamino)-1-oxobutan-2-yl)-3-phenyl-5,6,7,8-tetrahydroimidazo[1,5-a]pyrazine-1-carboxamide]			−	> 10000 nM	
CN1CCn2c(-c3ccccc3)nc(C(=O)NCC(C)(C)C)c2C1 [Compound 57, 7-methyl-N-neopentyl-3-phenyl-5,6,7,8-tetrahydroimidazo[1,5-a]pyrazine-1-carboxamide]				> 10000 nM	> 10000 nM
CC(C)CN1CCn2c(-c3ccccc3)nc(C(=O)NCC(C)(C)C)c2C1 [Compound 58, 7-isobutyl-N-neopentyl-3-phenyl-5,6,7,8-tetrahydroimidazo[1,5-a]pyrazine-1-carboxamide]			−	> 10000 nM	
CN1CCn2c(-c3ccccc3)nc(C(=O)N[C@H](CO)C(C)(C)C)c2C1 [Compound 59, (S)-N-(1-hydroxy-3,3-dimethylbutan-2-yl)-7-methyl-3-phenyl-5,6,7,8-tetrahydroimidazo[1,5-a]pyrazine-1-carboxamide]				> 10000 nM	> 10000 nM
CC(C)CN1CCn2c(-c3ccccc3)nc(C(=O)N[C@H](CO)C(C)(C)C)c2C1 [Compound 60, (S)-N-(1-hydroxy-3,3-dimethylbutan-2-yl)-7-isobutyl-3-phenyl-5,6,7,8-tetrahydroimidazo[1,5-a]pyrazine-1-carboxamide]			−	> 10000 nM	
CNC(=O)[C@@H](NC(=O)c1nc(-c2ccccc2)n2c1CN(Cc1ccccc1)CC2)C(C)(C)C [Compound 61, (S)-7-benzyl-N-(3,3-dimethyl-1-(methylamino)-1-oxobutan-2-yl)-3-phenyl-5,6,7,8-tetrahydroimidazo[1,5-a]pyrazine-1-carboxamide]				> 10000 nM	> 10000 nM
CNC(=O)[C@@H](NC(=O)c1nc(-c2ccccc2)n2c1CN(Cc1cncnc1)CC2)C(C)(C)C [Compound 62, (S)-N-(3,3-dimethyl-1-(methylamino)-1-oxobutan-2-yl)-3-phenyl-7-(pyrimidin-5-ylmethyl)-5,6,7,8-tetrahydroimidazo[1,5-a]pyrazine-1-carboxamide]			−	> 10000 nM	
CNC(=O)[C@@H](NC(=O)c1nc(-c2ccccc2)n2c1CN(Cc1cccnc1)CC2)C(C)(C)C [Compound 63, (S)-N-(3,3-dimethyl-1-(methylamino)-1-oxobutan-2-yl)-3-phenyl-7-(pyridin-3-ylmethyl)-5,6,7,8-tetrahydroimidazo[1,5-a]pyrazine-1-carboxamide]				> 10000 nM	> 10000 nM
CNC(=O)[C@@H](NC(=O)c1nc(-c2ccccc2)n2c1CN(Cc1ccco1)CC2)C(C)(C)C [Compound 64, (S)-N-(3,3-dimethyl-1-(methylamino)-1-oxobutan-2-yl)-7-(furan-2-ylmethyl)-3-phenyl-5,6,7,8-tetrahydroimidazo[1,5-a]pyrazine-1-carboxamide]			−	> 10000 nM	
CNC(=O)[C@@H](NC(=O)c1nc(-c2ccccc2)n2c1CN(Cc1ccnn1C)CC2)C(C)(C)C [Compound 65, (S)-N-(3,3-dimethyl-1-(methylamino)-1-oxobutan-2-yl)-7-((1-methyl-1H-pyrazol-5-yl)methyl)-3-phenyl-5,6,7,8-tetrahydroimidazo[1,5-a]pyrazine-1-carboxamide]				> 10000 nM	> 10000 nM
CNC(=O)[C@@H](NC(=O)c1nc(-c2ccccc2)n2c1CN(Cc1cnn(C)c1)CC2)C(C)(C)C [Compound 66, (S)-N-(3,3-dimethyl-1-(methylamino)-1-oxobutan-2-yl)-7-((1-methyl-1H-pyrazol-4-yl)methyl)-3-phenyl-5,6,7,8-tetrahydroimidazo[1,5-a]pyrazine-1-carboxamide]			+	> 10000 nM	
CN1CCn2c(-c3ccccc3)nc(C(=O)N[C@@H](CO)C(C)(C)C)c2C1 [Compound 67, (R)-N-(1-hydroxy-3,3-dimethylbutan-2-yl)-7-methyl-3-phenyl-5,6,7,8-tetrahydroimidazo[1,5-a]pyrazine-1-carboxamide]				> 10000 nM	> 10000 nM
CC(C)CN1CCn2c(-c3ccccc3)nc(C(=O)N[C@@H](CO)C(C)(C)C)c2C1 [Compound 68, (R)-N-(1-hydroxy-3,3-dimethylbutan-2-yl)-7-isobutyl-3-phenyl-5,6,7,8-tetrahydroimidazo[1,5-a]pyrazine-1-carboxamide]			−	> 10000 nM	
